# Test results: PubChem BioAssay AID1259407 (Chemical Carcinogenesis Research Information System (CCRIS), 2018)
# Active and inactive are the calls of the source. No rule for the calls is given here.
# Tested on: CCRIS mutagenicity, Ames/micronucleus/aberration tests
# Assay: CCRIS mutagenicity studies
# [1] = Test System: AMES SALMONELLA TYPHIMURIUM, Strain/Indicator: TA1537, Metabolic Activation: NONE, Method: PREINCUBATION
# [2] = Test System: AMES SALMONELLA TYPHIMURIUM, Strain/Indicator: TA100, Metabolic Activation: NONE, Method: PREINCUBATION
# [3] = Test System: AMES SALMONELLA TYPHIMURIUM, Strain/Indicator: TA98, Metabolic Activation: NONE, Method: PREINCUBATION
# [4] = Test System: AMES SALMONELLA TYPHIMURIUM, Strain/Indicator: TA1535, Metabolic Activation: NONE, Method: PREINCUBATION
smiles,measurement,setting,value
Nc1c2ccccc2nc2ccc(I)cc12,mutagenic call,[1],active; positive
CCC1(C)CO1 (centres undefined),mutagenic call,"Test System: AMES SALMONELLA TYPHIMURIUM, Strain/Indicator: TA98, Metabolic Activation: NONE, Method: STANDARD PLATE",inactive; negative
same,mutagenic call,"Test System: AMES SALMONELLA TYPHIMURIUM, Strain/Indicator: TA100, Metabolic Activation: NONE, Method: STANDARD PLATE",inactive; negative
COc1cc(N=Nc2c(Br)cc([N+](=O)[O-])cc2[N+](=O)[O-])c(NC(C)=O)cc1N(CCOC(C)=O)CCOC(C)=O,mutagenic call,"End Point: IN VITRO CHROMOSOMAL ABERRATIONS, Test System: CHL CELLS, Metabolic Activation: NONE",active; positive (structural changes)
ClC(Cl)=C(Cl)/C(Cl)=C(\Cl)SCc1ccccc1,mutagenic call,[2],inactive; negative
same,mutagenic call,"Test System: AMES SALMONELLA TYPHIMURIUM, Strain/Indicator: TA100, Metabolic Activation: RAT, LIVER, S-9, AROCLOR 1254, Method: PREINCUBATION",active; positive
C[C@]12CC[C@@H]3c4ccc(O)cc4C[C@@H](CCCCCCCCCS(=O)CCCC(F)(F)C(F)(F)F)[C@H]3[C@@H]1CC[C@@H]2O (some centres undefined),mutagenic call,"Test System: CHINESE HAMSTER V-79, Strain/Indicator: V-79 (HPRT)/6-THIOGUANINE, Metabolic Activation: NONE, Method: SUSPENSION/PLATE",active; positive
O=C(O)C[C@H](O)C[C@H](O)/C=C/c1c(C2CC2)nc2ccccc2c1-c1ccc(F)cc1,mutagenic call,[3],inactive; negative
same,mutagenic call,"Test System: AMES SALMONELLA TYPHIMURIUM, Strain/Indicator: TA98, Metabolic Activation: S-9, Method: PREINCUBATION",inactive; negative
same,mutagenic call,[2],inactive; negative
same,mutagenic call,"Test System: AMES SALMONELLA TYPHIMURIUM, Strain/Indicator: TA100, Metabolic Activation: S-9, Method: PREINCUBATION",inactive; negative
same,mutagenic call,[4],inactive; negative
same,mutagenic call,"Test System: AMES SALMONELLA TYPHIMURIUM, Strain/Indicator: TA1535, Metabolic Activation: S-9, Method: PREINCUBATION",inactive; negative
same,mutagenic call,[1],inactive; negative
same,mutagenic call,"Test System: AMES SALMONELLA TYPHIMURIUM, Strain/Indicator: TA1537, Metabolic Activation: S-9, Method: PREINCUBATION",inactive; negative
same,mutagenic call,"Test System: ESCHERICHIA COLI, Strain/Indicator: WP2 UVR A, Metabolic Activation: NONE, Method: PREINCUBATION",inactive; negative
same,mutagenic call,"Test System: ESCHERICHIA COLI, Strain/Indicator: WP2 UVR A, Metabolic Activation: S-9, Method: PREINCUBATION",inactive; negative
same,mutagenic call,"Test System: UDS RAT HEPATOCYTES IN VIVO, Strain/Indicator: CRJ:CD(SD)/THYMIDINE INCORPORATION, Metabolic Activation: NONE, Method: AUTORADIOGRAPHY",inactive; negative
C/C(C=O)=C(/Cl)C(=O)O,mutagenic call,[3],active; positive
same,mutagenic call,[2],active; positive
same,mutagenic call,"Test System: AMES SALMONELLA TYPHIMURIUM, Strain/Indicator: TA104, Metabolic Activation: NONE, Method: PREINCUBATION",active; positive
CC(CC(=O)O)C(=O)O (centres undefined),mutagenic call,"Test System: AMES SALMONELLA TYPHIMURIUM, Strain/Indicator: TA97, Metabolic Activation: HAMSTER, LIVER, S-9, AROCLOR 1254 (10%), Method: PREINCUBATION",inactive; negative
same,mutagenic call,"Test System: AMES SALMONELLA TYPHIMURIUM, Strain/Indicator: TA97, Metabolic Activation: HAMSTER, LIVER, S-9, AROCLOR 1254 (30%), Method: PREINCUBATION",inactive; negative
same,mutagenic call,"Test System: AMES SALMONELLA TYPHIMURIUM, Strain/Indicator: TA97, Metabolic Activation: NONE, Method: PREINCUBATION",inactive; negative
same,mutagenic call,"Test System: AMES SALMONELLA TYPHIMURIUM, Strain/Indicator: TA97, Metabolic Activation: RAT, LIVER, S-9, AROCLOR 1254 (10%), Method: PREINCUBATION",inactive; negative
same,mutagenic call,"Test System: AMES SALMONELLA TYPHIMURIUM, Strain/Indicator: TA97, Metabolic Activation: RAT, LIVER, S-9, AROCLOR 1254 (30%), Method: PREINCUBATION",inactive; negative
same,mutagenic call,"Test System: AMES SALMONELLA TYPHIMURIUM, Strain/Indicator: TA98, Metabolic Activation: HAMSTER, LIVER, S-9, AROCLOR 1254 (10%), Method: PREINCUBATION",inactive; negative
same,mutagenic call,"Test System: AMES SALMONELLA TYPHIMURIUM, Strain/Indicator: TA98, Metabolic Activation: HAMSTER, LIVER, S-9, AROCLOR 1254 (30%), Method: PREINCUBATION",inactive; negative
same,mutagenic call,[3],inactive; negative
same,mutagenic call,"Test System: AMES SALMONELLA TYPHIMURIUM, Strain/Indicator: TA98, Metabolic Activation: RAT, LIVER, S-9, AROCLOR 1254 (10%), Method: PREINCUBATION",inactive; negative
same,mutagenic call,"Test System: AMES SALMONELLA TYPHIMURIUM, Strain/Indicator: TA98, Metabolic Activation: RAT, LIVER, S-9, AROCLOR 1254 (30%), Method: PREINCUBATION",inactive; negative
same,mutagenic call,"Test System: AMES SALMONELLA TYPHIMURIUM, Strain/Indicator: TA100, Metabolic Activation: HAMSTER, LIVER, S-9, AROCLOR 1254 (10%), Method: PREINCUBATION",inactive; negative
same,mutagenic call,"Test System: AMES SALMONELLA TYPHIMURIUM, Strain/Indicator: TA100, Metabolic Activation: HAMSTER, LIVER, S-9, AROCLOR 1254 (30%), Method: PREINCUBATION",inactive; negative
same,mutagenic call,[2],inactive; negative
same,mutagenic call,"Test System: AMES SALMONELLA TYPHIMURIUM, Strain/Indicator: TA100, Metabolic Activation: RAT, LIVER, S-9, AROCLOR 1254 (10%), Method: PREINCUBATION",inactive; negative
same,mutagenic call,"Test System: AMES SALMONELLA TYPHIMURIUM, Strain/Indicator: TA100, Metabolic Activation: RAT, LIVER, S-9, AROCLOR 1254 (30%), Method: PREINCUBATION",inactive; negative
same,mutagenic call,"Test System: AMES SALMONELLA TYPHIMURIUM, Strain/Indicator: TA1535, Metabolic Activation: HAMSTER, LIVER, S-9, AROCLOR 1254 (10%), Method: PREINCUBATION",inactive; negative
same,mutagenic call,"Test System: AMES SALMONELLA TYPHIMURIUM, Strain/Indicator: TA1535, Metabolic Activation: HAMSTER, LIVER, S-9, AROCLOR 1254 (30%), Method: PREINCUBATION",inactive; negative
same,mutagenic call,[4],inactive; negative
same,mutagenic call,"Test System: AMES SALMONELLA TYPHIMURIUM, Strain/Indicator: TA1535, Metabolic Activation: RAT, LIVER, S-9, AROCLOR 1254 (10%), Method: PREINCUBATION",inactive; negative
same,mutagenic call,"Test System: AMES SALMONELLA TYPHIMURIUM, Strain/Indicator: TA1535, Metabolic Activation: RAT, LIVER, S-9, AROCLOR 1254 (30%), Method: PREINCUBATION",inactive; negative
same,mutagenic call,"Test System: AMES SALMONELLA TYPHIMURIUM, Strain/Indicator: TA1537, Metabolic Activation: HAMSTER, LIVER, S-9, AROCLOR 1254 (30%), Method: PREINCUBATION",inactive; negative
same,mutagenic call,[1],inactive; negative
same,mutagenic call,"Test System: AMES SALMONELLA TYPHIMURIUM, Strain/Indicator: TA1537, Metabolic Activation: RAT, LIVER, S-9, AROCLOR 1254 (30%), Method: PREINCUBATION",inactive; negative
